Measured values from patent US7247646B2, “Benzopyranone compounds, compositions thereof, and methods of treatment therewith” (Signal Pharmaceuticals, LLC, priority 2003, dated 2007).
“And” between values parts separate entries of the source, which are not always exact repeats. Identical values can stand only once.

Key:
Type in all cases: cell-based
[1] = molecular target: T1, human ER-α (Homo sapiens, UniProt P03372); test: Inhibition of IL-6 release from U-2 OS osteosarcoma cells stably transfected with human ER-α; conditions: IL-6 production (ELISA) after 2.5 ng/ml TNFα and 1 ng/ml IL-1β stimulation, 24 h; compound 0.01–1000 nM; vehicle = 100%; read-out: IC50 (nM) U2 OS (ER-α)
T1 construct: stably transfected with expression vectors for human full-length ER-α or ER-β; expressed in transfected cells
T1 sequence (P03372 1-595): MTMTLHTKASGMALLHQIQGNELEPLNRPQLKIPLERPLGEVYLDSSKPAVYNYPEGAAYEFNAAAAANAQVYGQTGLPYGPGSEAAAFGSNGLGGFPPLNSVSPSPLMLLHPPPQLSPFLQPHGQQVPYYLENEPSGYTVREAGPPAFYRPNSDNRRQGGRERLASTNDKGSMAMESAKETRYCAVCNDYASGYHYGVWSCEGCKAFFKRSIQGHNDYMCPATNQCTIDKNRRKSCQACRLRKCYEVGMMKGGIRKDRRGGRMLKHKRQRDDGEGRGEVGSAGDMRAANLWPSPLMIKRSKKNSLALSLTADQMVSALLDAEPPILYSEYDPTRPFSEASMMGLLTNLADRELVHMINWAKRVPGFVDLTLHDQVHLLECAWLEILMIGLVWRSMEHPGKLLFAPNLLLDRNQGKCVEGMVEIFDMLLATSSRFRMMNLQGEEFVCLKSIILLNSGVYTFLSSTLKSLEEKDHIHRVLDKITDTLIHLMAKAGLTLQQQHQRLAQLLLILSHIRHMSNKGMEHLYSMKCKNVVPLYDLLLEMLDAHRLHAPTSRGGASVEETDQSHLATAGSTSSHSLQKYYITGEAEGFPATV
Experimental: (§1) Illustrative Benzopyranone Compounds were tested for their ability to inhibit IL-6 release from human U-2 OS osteosarcoma cells stably transfected with human ER-α or ER-β. (Stein, B.; Yang, M. X. Mol. Cell. Biol 15: 4971–4979, 1995; Poli, V. et. al., EMBO J. 13:1189–1196, 1994). […] Benzopyranone Compounds having an IC50<100 nM are particularly useful as bone resorption inhibitors in vivo. Accordingly, the Benzopyranone Compounds, are particularly useful for the treatment of osteoporosis, Paget's disease and metastatic bone cancer. These Benzopyranone Compounds are also useful as anti-cancer agents, since elevated IL-6 levels are responsible for certain cancers such as multiple myeloma, prostate cancer, ovarian cancer, renal carcinoma and cervical carcinoma.
(§2) Human U-2 OS osteosarcoma cells (ATCC) were stably transfected with expression vectors for human full-length ER-α or ER-β using standard molecular biology techniques. Stable subclones were generated that expressed high levels of ER-α or ER-β mRNA. The expression of ER-α or ER-β was confirmed using RNase protection analysis.
(§3) Cells were plated into 96-well plates at a density of 80,000 cells per well in phenol red-free media with charcoal-stripped fetal calf serum. Twenty four hours later, cells were either treated with vehicle (0.2% DMSO) or a Benzopyranone Compound (0.01–1000 nm in 0.2% DMSO). Thirty minutes later cells were stimulated with 2.5 ng/ml TNFα and 1 ng/ml IL-1β. Twenty-four hours later the media supernatant was analyzed for cytokine production (IL-6) using commercially available ELISA kits following the manufacturer's instructions. Cytokine production in the presence of vehicle (0.2% DMSO) was set to 100%.
(§4) The results (Table 2) are expressed as an IC50 (nM) value which is the concentration of the Benzopyranone Compound sufficient to inhibit the production of IL-6 50% relative to the amount of IL-6 produced in the presence of vehicle.

[2] = molecular target: T2, human ER-β (Homo sapiens, UniProt Q92731); test: Inhibition of IL-6 release from U-2 OS osteosarcoma cells stably transfected with human ER-β; conditions: IL-6 production (ELISA) after 2.5 ng/ml TNFα and 1 ng/ml IL-1β stimulation, 24 h; compound 0.01–1000 nM; vehicle = 100%; read-out: IC50 (nM) U2 OS (ER-β)
T2 construct: stably transfected with expression vectors for human full-length ER-α or ER-β; expressed in transfected cells
Experimental: as §1, §2, §3, §4

[3] = system: MCF-7 breast cancer cells; test: Inhibition of 17β-estradiol-dependent MCF-7 breast cancer cell proliferation (3H-thymidine incorporation); conditions: Homo sapiens, MCF7; with 0.1 nM 17β-estradiol, 72 h, then 3H-thymidine 4 h; compound 0.1–1000 nM
Experimental: MCF-7 cells represent an excellent in vitro system to study the effects of compounds on estrogen-dependent breast cancer growth. (May, F. E. B.; Westley, B. R. J. Biol. Chem. 262:15894–15899, 1987). Benzopyranone Compounds having an IC50<100 nM are particularly useful as anti-breast cancer agents in vivo.
MCF-7 breast carcinoma cells were plated in 24-well dishes at a density of 5×10^3 cells/well in phenol-red free DMEM:F-12 (1:1) medium containing 1% antibiotics, 0.05% mercaptoethanol, 0.01% ethanolamine, 0.42 ng/mL sodium selenite and 5% charcoal-stripped FCS.
Illustrative Benzopyranone Compounds (0.1–1000 nM in 0.2% DMSO) and 0.1 nM 17β-estradiol were added to the cultured MCF-7 breast cancer cells for 72 h. Subsequently, ^3H-labeled thymidine was added and its incorporation into cells was measured following 4 h incubation. The results (Table 2) are expressed as an IC50 (nM) value which is the concentration of the Benzopyranone Compound sufficient to inhibit the growth of MCF-7 breast cancer cells by 50% relative to controls.

T2 sequence (Q92731 whole entry): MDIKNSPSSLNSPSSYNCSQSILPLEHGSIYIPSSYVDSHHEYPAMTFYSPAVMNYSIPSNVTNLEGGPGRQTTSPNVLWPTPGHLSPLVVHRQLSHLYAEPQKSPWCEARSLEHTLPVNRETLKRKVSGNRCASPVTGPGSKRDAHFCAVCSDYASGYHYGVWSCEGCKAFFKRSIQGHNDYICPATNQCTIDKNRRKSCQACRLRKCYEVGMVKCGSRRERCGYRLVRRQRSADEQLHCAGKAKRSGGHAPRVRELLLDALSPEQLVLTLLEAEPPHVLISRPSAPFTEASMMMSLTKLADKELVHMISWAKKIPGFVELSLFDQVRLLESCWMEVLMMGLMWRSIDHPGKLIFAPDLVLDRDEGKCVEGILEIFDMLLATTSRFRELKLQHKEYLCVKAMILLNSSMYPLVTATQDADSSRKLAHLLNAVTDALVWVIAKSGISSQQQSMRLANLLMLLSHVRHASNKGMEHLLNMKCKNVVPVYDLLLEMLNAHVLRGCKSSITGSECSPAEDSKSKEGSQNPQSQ

Structure (SMILES) | IC50 [1] | IC50 [2] | IC50 [3]
Cc1cc2c(Cc3ccc(OCCN4CCCC4)cc3)c(-c3ccc(C(F)(F)F)cc3)c(=O)oc2cc1O | 13.3 nM | > 1000 nM | 59.5 nM
CC(O)c1cc2c(Cc3ccc(OCCN4CCCC4)cc3)c(-c3ccc(C(F)(F)F)cc3)c(=O)oc2cc1O (stereo not shown) | 850 nM and > 1000 nM | > 1000 nM | 
Cc1cc2c(Cc3ccc(OCCN4CCCC4)cc3)c(-c3ccc(Cl)cc3Cl)c(=O)oc2cc1O | 1.7 nM | > 1000 nM | 10 nM
Cc1c(O)ccc2c(Cc3ccc(OCCN4CCCC4)cc3)c(-c3ccc(Cl)cc3Cl)c(=O)oc12 | 6.9 nM | < 1000 nM | 35 nM
CC(=O)c1c(O)ccc2c(Cc3ccc(OCCN4CCCC4)cc3)c(-c3ccc(C(F)(F)F)cc3)c(=O)oc12 | 39 nM | < 1000 nM | 185 nM
CC(=O)c1c(O)ccc2c(Cc3ccc(OCCN4CCCC4)cc3)c(-c3ccc(Cl)cc3Cl)c(=O)oc12 | 5 nM | < 1000 nM | 112 nM
N#Cc1c(O)ccc2c(Cc3ccc(OCCN4CCCC4)cc3)c(-c3ccc(C(F)(F)F)cc3)c(=O)oc12 | 390 nM | > 1000 nM | 

Other lines, results leading:

IC50 [1] | IC50 [2] | IC50 [3] | Structure (SMILES)
850 nM and > 1000 nM | > 1000 nM | > 1000 nM | CC(=O)c1cc2c(Cc3ccc(OCCN4CCCC4)cc3)c(-c3ccc(C(F)(F)F)cc3)c(=O)oc2cc1O
310 nM and > 1000 nM | > 1000 nM | > 1000 nM | O=c1oc2cc(O)c(Br)cc2c(Cc2ccc(OCCN3CCCC3)cc2)c1-c1ccc(C(F)(F)F)cc1
55.5 nM | < 1000 nM | 235 nM | Cc1c(O)ccc2c(Cc3ccc(OCCN4CCCC4)cc3)c(-c3ccc(C(F)(F)F)cc3)c(=O)oc12
285 nM | < 1000 nM | < 1000 nM | Cc1c(O)ccc2c(Cc3ccc(OCCN4CCCC4)cc3)c(-c3ccc(Cl)cc3)c(=O)oc12
